Measured values published in patent US20240294517A1, “2-[3-[1 [(QUINAZOLIN-4-YL)AMINO]ETHYL]PYRAZIN-2-YL]THIAZOLE-5-CARBONITRILE DERIVATIVES AND SIMILAR COMPOUNDS AS PESTICIDES” (SYNGENTA CROP PROTECTION AG, priority 2021, published 2024).

Experiments:
Chilo suppressalis = assay: Activity against Chilo suppressalis (striped rice stemborer), artificial diet in 24-well plates; type: in vivo; conditions: 144 h, application rate 200 ppm, L2 larvae, 6 days after infestation
Experimental: 24-well microtiter plates with artificial diet were treated with aqueous test solutions prepared from 10′000 ppm DMSO stock solutions by pipetting. After drying, the plates were infested with L2 larvae (6-8 per well). The samples were assessed for mortality, anti-feeding effect, and growth inhibition in comparison to untreated samples 6 days after infestation. Control of Chilo suppressalis by a test sample is given when at least one of the categories mortality, anti-feedant effect, and growth inhibition is higher than the untreated sample.

Plutella xylostella = assay: Activity against Plutella xylostella (diamond back moth), artificial diet; type: in vivo; conditions: for percent effect (mortality or growth inhibition) at 200 ppm: 192 h, application rate 200 ppm, eggs, 8 days after infestation, read-out: effect in at least one of the two categories (mortality or growth inhibition); for mortality at 12.5 ppm: concentration 12.5 ppm
Experimental: 24-well microtiter plates with artificial diet were treated with aqueous test solutions prepared from 10′000 ppm DMSO stock solutions by pipetting. After drying, Plutella eggs were pipetted through a plastic stencil onto a gel blotting paper and the plate was closed with it. The samples were assessed for mortality and growth inhibition in comparison to untreated samples 8 days after infestation.
(§1) Activity of compound P5 according to the preparatory examples and of compound P.118 from WO 21/083936 against Plutella xylostella ([…]) and Diabrotica balteata (Example B2) is summarized in Table B9.

Diabrotica balteata = assay: Activity against Diabrotica balteata (corn root worm), sprayed maize sprouts; type: in vivo; conditions: for percent effect (mortality or growth inhibition) at 200 ppm: 96 h, application rate 200 ppm, L2 larvae, 4 days after infestation, read-out: effect in at least one of the two categories (mortality or growth inhibition); for mortality at 3.125 ppm: concentration 3.125 ppm
Experimental: Maize sprouts placed onto an agar layer in 24-well microtiter plates were treated with aqueous test solutions prepared from 10′000 ppm DMSO stock solutions by spraying. After drying, the plates were infested with L2 larvae (6 to 10 per well). The samples were assessed for mortality and growth inhibition in comparison to untreated samples 4 days after infestation.
as §1

Spodoptera littoralis = assay: Activity against Spodoptera littoralis (Egyptian cotton leaf worm), sprayed cotton leaf discs; type: in vivo; conditions: foliar, 72 h, application rate 200 ppm, L1 larvae, 3 days after infestation
Experimental: Cotton leaf discs were placed onto agar in 24-well microtiter plates and sprayed with aqueous test solutions prepared from 10′000 ppm DMSO stock solutions. After drying the leaf discs were infested with five L1 larvae. The samples were assessed for mortality, anti-feeding effect, and growth inhibition in comparison to untreated samples 3 days after infestation. Control of Spodoptera littoralis by a test sample is given when at least one of the categories mortality, anti-feedant effect, and growth inhibition is higher than the untreated sample.

Euschistus heros = assay: Activity against Euschistus heros (neotropical brown stink bug), sprayed soybean leaves; type: in vivo; conditions: 120 h, application rate 200 ppm, N2 nymphs, 5 days after infestation, read-out: effect in at least one of the two categories (mortality or growth inhibition)
Experimental: Soybean leaves on agar in 24-well microtiter plates were sprayed with aqueous test solutions prepared from 10′000 ppm DMSO stock solutions. After drying the leaves were infested with N2 nymphs. The samples were assessed for mortality and growth inhibition in comparison to untreated samples 5 days after infestation.

Row | melting point | Compound | percent control (mortality, anti-feedant effect or growth inhibition) at 200 ppm (Chilo suppressalis) | percent effect (mortality or growth inhibition) at 200 ppm (Plutella xylostella) | percent effect (mortality or growth inhibition) at 200 ppm (Diabrotica balteata) | percent control (mortality, anti-feedant effect or growth inhibition) at 200 ppm (Spodoptera littoralis) | mortality at 12.5 ppm (Plutella xylostella) | mortality at 3.125 ppm (Diabrotica balteata) | percent effect (mortality or growth inhibition) at 200 ppm (Euschistus heros)
1 | – | CC(Nc1nc(=O)[nH]c2c(Br)cc(C(F)(F)F)cc12)c1nccnc1-c1ncc(C#N)s1 (stereo not shown) [P1, 2-[3-[1-[[8-bromo-2-oxo-6-(trifluoromethyl)-1H-quinazolin-4-yl]amino]ethyl]pyrazin-2-yl]thiazole-5-carbonitrile] | ≥ 80% | ≥ 80% | ≥ 80% | – | – | – | –
2 | – | C[C@H](Nc1nc(=O)[nH]c2c(Br)cc(C(F)(F)F)cc12)c1ncnn1-c1ncc(C#N)s1 [P2, 2-[5-[(1S)-1-[[8-bromo-2-oxo-6-(trifluoromethyl)-1H-quinazolin-4-yl]amino]ethyl]-1,2,4-triazol-1-yl]thiazole-5-carbonitrile] | ≥ 80% | ≥ 80% | – | ≥ 80% | – | – | –
3 | 197 to 199 °C | CC(Nc1nc(Cl)nc2c(Br)cc(C(F)(F)F)cc12)c1nccnc1-c1ncc(Br)s1 (stereo not shown) [P3, 8-bromo-N-[1-[3-(5-bromothiazol-2-yl)pyrazin-2-yl]ethyl]-2-chloro-6-(trifluoromethyl)quinazolin-4-amine] | – | – | – | – | – | – | –
4 | – | CC(Nc1nc(=O)[nH]c2c(Br)cc(C(F)(F)F)cc12)c1nccnc1-c1ncc(Br)s1 (stereo not shown) [P4, 8-bromo-4-[1-[3-(5-bromothiazol-2-yl)pyrazin-2-yl]ethylamino]-6-(trifluoromethyl)-1H-quinazolin-2-one] | ≥ 80% | ≥ 80% | ≥ 80% | – | – | – | –
5 | – | CC(Nc1ncnc2c(C(F)(F)F)cc(Cl)cc12)c1nccnc1-c1ncc(C#N)s1 (stereo not shown) [P5, 2-[3-[1-[[6-chloro-8-(trifluoromethyl)quinazolin-4-yl]amino]ethyl]pyrazin-2-yl]thiazole-5-carbonitrile] | ≥ 80% | ≥ 80% | ≥ 80% | ≥ 80% | 50% | 100% | –
6 | – | CC(Nc1ncnc2c(C(F)(F)F)cc(Cl)cc12)c1nccnc1-c1ncc(Br)s1 (stereo not shown) [P6, N-[1-[3-(5-bromothiazol-2-yl)pyrazin-2-yl]ethyl]-6-chloro-8-(trifluoromethyl)quinazolin-4-amine] | ≥ 80% | – | ≥ 80% | – | – | – | –
7 | – | CC(Nc1ncnc2c(C(F)(F)F)cc(C(F)(F)F)cc12)c1nccnc1-c1ncc(C#N)s1 (stereo not shown) [P7, 2-[3-[1-[[6,8-bis(trifluoromethyl)quinazolin-4-yl]amino]ethyl]pyrazin-2-yl]thiazole-5-carbonitrile] | ≥ 80% | ≥ 80% | ≥ 80% | ≥ 80% | – | – | –
8 | – | CC(Nc1ncnc2c(C(F)(F)F)cc(C(F)(F)F)cc12)c1nccnc1-c1ncc(Br)s1 (stereo not shown) [P8, N-[1-[3-(5-bromothiazol-2-yl)pyrazin-2-yl]ethyl]-6,8-bis(trifluoromethyl)quinazolin-4-amine] | ≥ 80% | ≥ 80% | ≥ 80% | – | – | – | –
9 | – | C[C@H](Nc1nc(Cl)nc2c(Br)cc(C(F)(F)F)cc12)c1ncnn1-c1ncc(C#N)s1 [P9, 2-[5-[(1S)-1-[[8-bromo-2-chloro-6-(trifluoromethyl)quinazolin-4-yl]amino]ethyl]-1,2,4-triazol-1-yl]thiazole-5-carbonitrile] | ≥ 80% | ≥ 80% | ≥ 80% | – | – | – | –
10 | – | C[C@H](Nc1ncnc2c(C(F)(F)F)cc(Cl)cc12)c1ncnn1-c1ncc(C#N)s1 [P10, 2-[5-[(1S)-1-[[6-chloro-8-(trifluoromethyl)quinazolin-4-yl]amino]ethyl]-1,2,4-triazol-1-yl]thiazole-5-carbonitrile] | ≥ 80% | ≥ 80% | ≥ 80% | ≥ 80% | – | – | ≥ 80%
11 | – | C[C@@H](c1ncnn1-c1ncc(C#N)s1)N(C)c1ncnc2c(C(F)(F)F)cc(Cl)cc12 [P11, 2-[5-[(1S)-1-[[6-chloro-8-(trifluoromethyl)quinazolin-4-yl]-methyl-amino]ethyl]-1,2,4-triazol-1-yl]thiazole-5-carbonitrile] | ≥ 80% | ≥ 80% | ≥ 80% | ≥ 80% | – | – | –
12 | – | CC(Nc1ncnc2c(Cl)cc(C(F)(F)F)cc12)c1nccnc1-c1ncc(C#N)s1 (stereo not shown) [P12, 2-[3-[1-[[8-chloro-6-(trifluoromethyl)quinazolin-4-yl]amino]ethyl]pyrazin-2-yl]thiazole-5-carbonitrile] | ≥ 80% | ≥ 80% | ≥ 80% | ≥ 80% | – | – | –
13 | – | CC(Nc1ncnc2c(C(F)(F)F)cc(Cl)cc12)c1nccnc1-c1ncsn1 (stereo not shown) [P13, 6-chloro-N-[1-[3-(1,2,4-thiadiazol-3-yl)pyrazin-2-yl]ethyl]-8-(trifluoromethyl)quinazolin-4-amine] | – | ≥ 80% | ≥ 80% | ≥ 80% | – | – | –
14 | – | CC(Nc1ncnc2c(Br)cc(Br)cc12)c1nccnc1-c1ncsn1 (stereo not shown) [P16, 6,8-dibromo-N-[1-[3-(1,2,4-thiadiazol-3-yl)pyrazin-2-yl]ethyl]quinazolin-4-amine] | – | ≥ 80% | ≥ 80% | ≥ 80% | – | – | –
15 | – | C[C@@H](c1ncnn1-c1ncc(C#N)s1)N(C)c1ncnc2c(Cl)cc(C(F)(F)F)cc12 [P17, 2-[5-[(1S)-1-[[8-chloro-6-(trifluoromethyl)quinazolin-4-yl]-methyl-amino]ethyl]-1,2,4-triazol-1-yl]thiazole-5-carbonitrile] | ≥ 80% | ≥ 80% | ≥ 80% | ≥ 80% | – | – | ≥ 80%
16 | – | CC(Nc1ncnc2c(Cl)cc(C(F)(F)F)cc12)c1nccnc1-c1ncsn1 (stereo not shown) [P18, 8-chloro-N-[1-[3-(1,2,4-thiadiazol-3-yl)pyrazin-2-yl]ethyl]-6-(trifluoromethyl)quinazolin-4-amine] | – | ≥ 80% | ≥ 80% | – | – | – | –
17 | – | CC(Nc1ncnc2c(Br)cc(Br)cc12)c1nccnc1-c1ncc(C#N)s1 (stereo not shown) [P19, 2-[3-[1-[(6,8-dibromoquinazolin-4-yl)amino]ethyl]pyrazin-2-yl]thiazole-5-carbonitrile] | ≥ 80% | ≥ 80% | ≥ 80% | ≥ 80% | – | – | –
18 | – | C[C@H](Nc1ncnc2c(Cl)cc(S(=O)(=O)C(F)(F)F)cc12)c1ncnn1-c1ncc(C#N)s1 [P22, 2-[5-[(1S)-1-[[8-chloro-6-(trifluoromethylsulfonyl)quinazolin-4-yl]amino]ethyl]-1,2,4-triazol-1-yl]thiazole-5-carbonitrile] | ≥ 80% | ≥ 80% | ≥ 80% | ≥ 80% | – | – | –
19 | – | CC(Nc1ncnc2c(C(F)(F)F)cc(Cl)cc12)c1nccnc1-c1ccc(C#N)cn1 (stereo not shown) [P.118, reference compound] | – | – | – | – | 0% | 0% | –
